Where two headings read alike, the source gives them in different places.

The test system of one experiment is NCI-H929. The experiment is described as follows: Cytostatic activity on human multiple myeloma cell line NCI-H929 (WST-1). It is filed as cell-based. The conditions noted are these: for inhibition at 1 µM / inhibition at 10 µM: Homo sapiens, NCI-H929, 72 h; for inhibition at 1 µM: read-out: cytostatic rate (%) H929 (1 μmol/L); for inhibition at 10 µM: 10 μmol/L, read-out: cytostatic rate (%) H929 (10 μmol/L). In a few lines:
(§1)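 Cytostatic rate is 100 minus % growth relative to DMSO-only wells (100%) and blank wells (0%), read by WST-1 absorbance at 450/690 nm after 2 h. Compound at 1 or 10 μmol/L final was applied for 72 h at 37 °C to cells seeded 24 h earlier.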
Background: Tetrazolium assays rely on reduction of a dye to a coloured formazan, in cell work by metabolically active cells.

The subject of the next experiment is KMS-11. The experiment is described as follows: Cytostatic activity on human multiple myeloma cell line KMS-11 (WST-1). It is filed as cell-based. The conditions noted are these: for inhibition at 1 µM / inhibition at 10 µM: Homo sapiens, KMS-11, 72 h; for inhibition at 1 µM: read-out: cytostatic rate (%) KMS-11 (1 μmol/L); for inhibition at 10 µM: 10 μmol/L, read-out: cytostatic rate (%) KMS-11 (10 μmol/L). In outline:
as §1

The target of a further experiment is T1, IGF-1R (Homo sapiens, UniProt P08069).
T1 construct: purchased Upstate Co. 14-465
T1 sequence (P08069 959-1367 limits assumed): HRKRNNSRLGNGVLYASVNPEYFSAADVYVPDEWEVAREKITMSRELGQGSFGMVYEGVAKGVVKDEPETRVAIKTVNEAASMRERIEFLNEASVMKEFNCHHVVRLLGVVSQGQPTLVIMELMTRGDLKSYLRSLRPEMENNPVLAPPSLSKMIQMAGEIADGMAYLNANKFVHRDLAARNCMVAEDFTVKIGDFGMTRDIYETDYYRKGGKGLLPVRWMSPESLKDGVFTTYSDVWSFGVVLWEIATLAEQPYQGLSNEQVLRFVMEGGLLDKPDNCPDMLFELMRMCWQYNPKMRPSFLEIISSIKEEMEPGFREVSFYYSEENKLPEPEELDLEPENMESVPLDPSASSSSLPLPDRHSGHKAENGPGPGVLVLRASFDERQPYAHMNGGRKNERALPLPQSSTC
The experiment is described as follows: IGF-1R inhibitory activity (kinase reaction, time-resolved fluoroimmunoassay). It is filed as biochemical. The conditions noted are these: test compound 10 μmol/L. In outline: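 Compounds were tested at a single 10 μmol/L concentration. Each was incubated with recombinant IGF-1R (200 μg/L), 10 mmol/L ATP, MgCl2/MnCl2 and Na3VO4 (pH 7.5) on immobilized poly(Glu-Tyr) peptide for 30 min at 24° C. Eu-anti-phosphotyrosine time-resolved fluorescence (340/615 nm) gave relative activity against no-compound and no-enzyme wells, reported as % inhibition.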

[1] abbreviates: NCI-H929 cells, test compound 1 μmol/L, WST-1.
Where [2] appears, read: KMS-11 cells, test compound 1 μmol/L, WST-1.
[3] abbreviates: IGF-1R active recombinant enzyme.

Turning to `Cc1ccsc1C(=O)Nc1cc(C(=O)N(C)CCO)ccc1/C=C/c1n[nH]c2ccccc12` [Compound 327, (E)-N-{5-[N-(2-hydroxyethyl)-N-methylcarbamoyl]-2-[2-(1H-indazol-3-yl)vinyl]phenyl}-3-methylthiophene-2-carboxamide], the inhibition at 1 µM in the experiment with NCI-H929 (setting [1]) stood at 116%; in the experiment on KMS-11 (setting [2]), 98%. Besides, the inhibition at 10 µM at IGF-1R (setting [3]) was found to be 101%.

Consider `Cc1cc(C(=O)Nc2ccccc2/C=C/c2n[nH]c3ccccc23)ccc1N` [Compound 158, (E)-4-amino-N-{2-[2-(1H-indazol-3-yl)vinyl]phenyl}-3-methylbenzamide], for which the inhibition at 10 µM in the experiment on NCI-H929 (72 hours) stood at 113%; in the experiment with KMS-11 (72 hours) it was 108%; on IGF-1R (setting [3]), 99.5%.

As for `CCN(CC)CCNCc1ccc(/C=C/c2n[nH]c3ccccc23)c(NC(=O)c2sccc2C)c1` [Compound 236, (E)-N-{5-[(2-diethylaminoethylamino)methyl]-2-[2-(1H-indazol-3-yl)vinyl]phenyl}-3-methylthiophene-2-carboxamide], the inhibition at 1 µM in the experiment on NCI-H929 (1 μmol/L, 72 hours) was determined as 123%; with KMS-11 (1 μmol/L, 72 hours), 139%. For the same molecule, on IGF-1R (setting [3]), the inhibition at 10 µM was 99.5%.

For the molecule `O=[N+]([O-])c1ccccc1/C=C/c1n[nH]c2ccccc12` [Compound 1, (E)-3-[2-(2-nitrophenyl)vinyl]-1H-indazole], the inhibition at 10 µM came to 105% in the experiment on NCI-H929 (72 hours), 80.2% with KMS-11 (72 hours) and 71.2% at IGF-1R (setting [3]).

As to `Cc1ccsc1C(=O)Nc1cc(C(=O)N(C)C2CCN(C)CC2)ccc1/C=C/c1n[nH]c2ccccc12` [Compound 328, (E)-N-{2-[2-(1H-indazol-3-yl)vinyl]-5-[N-methyl-N-(1-methylpiperidin-4-yl)carbamoyl]phenyl}-3-methylthiophene-2-carboxamide], the inhibition at 1 µM is 116% in the experiment on NCI-H929 (setting [1]) and 105% in the experiment with KMS-11 (setting [2]). The inhibition at 10 µM at IGF-1R (setting [3]) is 97.9%.

Take `Cc1ccsc1C(=O)Nc1cc(N2CCN(C)CC2)ccc1/C=C/c1n[nH]c2ccccc12` [Compound 262, (E)-N-{2-[2-(1H-indazol-3-yl)vinyl]-5-(4-methylpiperazin-1-yl)phenyl}-3-methylthiophene-2-carboxamide]: the inhibition at 1 µM in the experiment with NCI-H929 (1 μmol/L, 72 hours) stood at 119%; in the experiment on KMS-11 (1 μmol/L, 72 hours) it was 119%. The inhibition at 10 µM at IGF-1R (setting [3]) was 103%.

On to `Cc1ccsc1C(=O)Nc1cc(CN2CCNC[C@@H]2C)ccc1/C=C/c1n[nH]c2ccccc12` [Compound 336, (E)-(S)—N-{2-[2-(1H-indazol-3-yl)vinyl]-5-(2-methylpiperazin-1-ylmethyl)phenyl}-3-methylthiophene-2-carboxamide], for which the inhibition at 1 µM was found to be 131% in the experiment with NCI-H929 (setting [1]) and 115% in the experiment on KMS-11 (setting [2]). The inhibition at 10 µM at IGF-1R (setting [3]) was 101%.

On to `O=C(Nc1ccccc1/C=C/c1n[nH]c2ccccc12)c1cnccn1` [Compound 28, (E)-N-{2-[2-(1H-indazol-3-yl)vinyl]phenyl}pyrazine-2-carboxamide], for which the results for the inhibition at 10 µM in the experiment on NCI-H929 (72 hours), with KMS-11 (72 hours) and on IGF-1R (setting [3]) were 116%, 109% and 95.2%, respectively.

Take `Cc1ccccc1C(=O)Nc1ccccc1/C=C/c1n[nH]c2ccccc12` [Compound 30, (E)-N-{2-[2-(1H-indazol-3-yl)vinyl]phenyl}-2-methylbenzamide]: the inhibition at 10 µM is 115% with NCI-H929 (72 hours), 115% with KMS-11 (72 hours) and 97.6% at IGF-1R (setting [3]).

As for `O=C(Nc1ccccc1/C=C/c1n[nH]c2ccccc12)C1CC1` [Compound 33, (E)-N-{2-[2-(1H-indazol-3-yl)vinyl]phenyl}cyclopropanecarboxamide], the inhibition at 10 µM in the experiment with NCI-H929 (72 hours) was found to be 108%; in the experiment with KMS-11 (72 hours) it was 115%; at IGF-1R (setting [3]), 92.4%.

On to `CC(=O)N1CCC(NC(=O)c2ccc(/C=C/c3n[nH]c4ccccc34)c(NC(=O)c3sccc3C)c2)CC1` [Compound 303, (E)-N-{5-[N-(1-acetylpiperidin-4-yl)carbamoyl]-2-[2-(1H-indazol-3-yl)vinyl]phenyl}-3-methylthiophene-2-carboxamide], for which the inhibition at 1 µM is 115% in the experiment on NCI-H929 (1 μmol/L, 72 hours) and 106% with KMS-11 (1 μmol/L, 72 hours). Besides, the inhibition at 10 µM at IGF-1R (setting [3]) amounted to 100%.

As for `O=C(Nc1ccccc1/C=C/c1n[nH]c2ccccc12)c1ccc(O)cc1` [Compound 77, (E)-4-hydroxy-N-{2-[2-(1H-indazol-3-yl)vinyl]phenyl}benzamide], the inhibition at 10 µM worked out at 111% in the experiment on NCI-H929 (72 hours), 126% in the experiment on KMS-11 (72 hours) and 101% on IGF-1R (setting [3]).

As for `Cl.Cn1cccc1C(=O)Nc1cc(N2CCOCC2)ccc1/C=C/c1n[nH]c2ccccc12` [Compound 246, (E)-{2-[2-(1H-indazol-3-yl)vinyl]-5-(morpholin-4-yl)phenyl}-1-methyl-1H-pyrrole-2-carboxamide monohydrochloride], the “cytostatic rate (%) H929 (1 μmol/L)” value in the experiment with NCI-H929 (1 μmol/L, 72 hours) worked out at 126.7%. In addition, the “cytostatic rate (%) KMS-11 (1 μmol/L)” value in the experiment with KMS-11 (1 μmol/L, 72 hours) is 128.9%. Further, the “inhibitory activity (%) at 10 μmol/L” value at IGF-1R (setting [3]) worked out at 100.2%.

Consider `COCC(=O)N1CCN(Cc2ccc(/C=C/c3n[nH]c4ccccc34)c(NC(=O)c3sccc3C)c2)CC1` [Compound 244, (E)-N-{2-[2-(1H-indazol-3-yl)vinyl]-5-[4-(2-methoxyacetyl)piperazin-1-ylmethyl]phenyl}-3-methylthiophene-2-carboxamide], for which the inhibition at 1 µM worked out at 127% in the experiment with NCI-H929 (1 μmol/L, 72 hours) and 124% with KMS-11 (1 μmol/L, 72 hours). The inhibition at 10 µM on IGF-1R (setting [3]) worked out at 102%.

For `Cc1ccsc1C(=O)Nc1cc(C(=O)N2CCC(N)CC2)ccc1/C=C/c1n[nH]c2ccccc12` [Compound 111, (E)-N-{5-(4-aminopiperidin-1-ylcarbonyl)-2-[2-(1H-indazol-3-yl)vinyl]phenyl}-3-methylthiophene-2-carboxamide], the inhibition at 10 µM in the experiment on NCI-H929 (72 hours) was determined as 120%; in the experiment with KMS-11 (72 hours), 112%; against IGF-1R, 98.1%.

As for `Nc1ccn(C(=O)c2ccccc2/C=C/c2n[nH]c3ccccc23)n1` [Compound 48, (E)-3-amino-1-{2-[2-(1H-indazol-3-yl)vinyl]benzoyl}pyrazole], the inhibition at 10 µM in the experiment with NCI-H929 (72 hours) came to 111%; in the experiment on KMS-11 (72 hours) it was 90.1%; at IGF-1R (setting [3]), 99.3%.

Take `O=C(Nc1ccccc1/C=C/c1n[nH]c2ccccc12)c1ccc(Br)s1` [Compound 34, (E)-5-bromo-N-{2-[2-(1H-indazol-3-yl)vinyl]phenyl}thiophene-2-carboxamide]: the inhibition at 10 µM with NCI-H929 (72 hours) is 113%; in the experiment with KMS-11 (72 hours) it was 116%; on IGF-1R (setting [3]), 99.2%.

In the case of `O=C(Nc1ccccc1/C=C/c1n[nH]c2ccccc12)c1ccsc1` [Compound 31, (E)-N-{2-[2-(1H-indazol-3-yl)vinyl]phenyl}thiophene-3-carboxamide], the figures for the inhibition at 10 µM in the experiment with NCI-H929 (72 hours), with KMS-11 (72 hours) and on IGF-1R (setting [3]) were 114%, 117% and 99.7%, respectively.

On to `Cc1ccsc1C(=O)Nc1cc(CN2CCC(N3CCOCC3)CC2)ccc1/C=C/c1n[nH]c2ccccc12` [Compound 296, (E)-N-{2-[2-(1H-indazol-3-yl)vinyl]-5-[4-(morpholin-4-yl)piperidin-1-ylmethyl]phenyl}-3-methylthiophene-2-carboxamide], for which the inhibition at 1 µM in the experiment with NCI-H929 (1 μmol/L, 72 hours) came to 117%; with KMS-11 (1 μmol/L, 72 hours), 112%. At IGF-1R (setting [3]), the inhibition at 10 µM is 99.9%.

Regarding `Cc1ccc(C(=O)Nc2ccccc2/C=C/c2n[nH]c3ccccc23)cc1` [Compound 5, (E)-N-{2-[2-(1H-indazol-3-yl)vinyl]phenyl}-4-methylbenzamide], the inhibition at 10 µM with NCI-H929 (72 hours) was 116%; with KMS-11 (72 hours) it was 129%; on IGF-1R (setting [3]), 99.1%.

In the case of `COc1c(OCCCN(C)CCO)ccc(/C=C/c2n[nH]c3ccccc23)c1NC(=O)c1sccc1C` [Compound 347, (E)-N-{3-{3-[(2-hydroxyethyl)methylamino]propoxy}-6-[2-(1H-indazol-3-yl)vinyl]-2-methoxyphenyl}-3-methylthiophene-2-carboxamide], the inhibition at 1 µM in the experiment with NCI-H929 (1 μmol/L, 72 hours) was determined as 116%; in the experiment with KMS-11 (1 μmol/L, 72 hours), 116%. In addition, the inhibition at 10 µM on IGF-1R (setting [3]) was 106%.

For `Cc1ccsc1C(=O)Nc1ccc(O)cc1/C=C/c1n[nH]c2ccccc12` [Compound 110, (E)-N-{4-hydroxy-2-[2-(1H-indazol-3-yl)vinyl]phenyl}-3-methylthiophene-2-carboxamide], the inhibition at 10 µM in the experiment on NCI-H929 (72 hours) amounted to 116%; in the experiment with KMS-11 (72 hours), 118%; on IGF-1R, 96.3%.

With `COCCN(CCN1CCOCC1)C(=O)c1ccc(/C=C/c2n[nH]c3ccccc23)c(NC(=O)c2sccc2C)c1` [Compound 249, (E)-N-(2-[2-(1H-indazol-3-yl)vinyl]-5-{N-(2-methoxyethyl)-N-[2-(morpholin-4-yl)ethyl]carbamoyl}phenyl)-3-methylthiophene-2-carboxamide], the inhibition at 1 µM came out at 113% in the experiment on NCI-H929 (1 μmol/L, 72 hours) and 113% with KMS-11 (1 μmol/L, 72 hours). Further, the inhibition at 10 µM at IGF-1R (setting [3]) was 100%.

On to `O=C(Nc1ccccc1/C=C/c1n[nH]c2ccccc12)c1cccc(F)c1` [Compound 7, (E)-3-fluoro-N-{2-[2-(1H-indazol-3-yl)vinyl]phenyl}benzamide], for which the values for the inhibition at 10 µM in the experiment with NCI-H929 (72 hours), with KMS-11 (72 hours) and on IGF-1R (setting [3]) were 115%, 121% and 98.6%, respectively.
